US12433854B2, “Methods and compositions for preventing or treating calciphylaxis” (Epizon Pharma, Inc., priority 2018, dated 2025)
Like-named read-outs stand apart in the source and are kept apart here.

What was measured:
[1] = system: adult hemodialysis patients; conditions: cited from earlier work
osteocalcin = conditions: 100-200 μg/d for 4 to 12 weeks; significantly and in a dose-dependent manner; cited from earlier work
[2] = system: subjects at risk of development of calciphylaxis; assay: MK-7 and/or MKH2-7 in subjects at risk for development of calciphylaxis (Example 1); assay type: in vivo, human; conditions: 10 mg, 25 mg or 50 mg orally once daily; blood samples; contemplated
Excerpt: This example describes the administration of MK-7 and/or MKH2-7 to subjects at risk for development of calciphylaxis, but who have not yet developed the characteristic skin lesions of calciphylaxis. Risk factors to be considered include, but are not limited to, diabetes mellitus, obesity, ESRD and/or hemodialysis, and prior treatment with warfarin (Nigwekar et al. (2016), supra). It is contemplated that administration of MK-7 and/or MKH2-7 can result in protection of the subjects from skin lesions and a change in certain biomarker levels indicative of the prevention of the development of calciphylaxis.
(§1) Subjects at risk of development of calciphylaxis orally receive MK-7 and/or MKH2-7 at 10 mg, 25 mg or 50 mg once daily for at least 2 weeks, 4 weeks, 6 weeks, 8 weeks, 3 months, 6 months, 1 year, or indefinitely. The dosage form is a 10 mg or 25 mg soft-gel capsule. Two 25 mg capsules are be administered once daily to the 50 mg dosage cohort.
It should be noted that not all subjects with elevated risk factors for calciphylaxis will develop the characteristic skin lesions of calciphylaxis. The intent of treating with MK-7 and/or MKH2-7 proactively (prior to a clinical diagnosis of calciphylaxis) is the prevention of lesion appearance. Thus, a drop in frequency of, or elimination of lesion appearances is contemplated to be a successful treatment.
Several biomarkers can be assessed to determine the efficacy of MK-7 and/or MKH2-7 at the three dose levels. Exemplary biomarkers include PIVKA-II; uncarboxylated and total Matrix Gla Protein (MGP); uncarboxylated, carboxylated and total osteocalcin protein; uncarboxylated, carboxylated and total Protein C, osteoprotegerin, Fetuin A and hs-CRP.
Blood samples are obtained to measure the biomarkers according to the following schedule. Blood sampling can occur during treatment on a weekly or monthly basis. It is contemplated that administration of MK-7 and/or MKH2-7 will result in (i) an increase in PIVKA-II, osteoprotegerin, or Fetuin A, which is indicative of slowing the progression of, arresting, or reversing, calciphylaxis, (ii) a decrease in uncarboxylated MGP, uncarboxylated osteocalcin, and/or uncarboxylated Protein C, which is indicative of slowing the progression of, arresting, or reversing calciphylaxis.
Further, pulse wave velocity (PWV) can be measured to assess arterial compliance. Improved vascular compliance will be indicative of slowing the progression of, arresting, or reversing calciphylaxis.

[3] = system: subjects diagnosed with calciphylaxis; assay: MK-7 and/or MKH2-7 in subjects diagnosed with calciphylaxis (Example 2); assay type: in vivo, human; conditions: 10 mg, 25 mg or 50 mg orally once daily; contemplated
Excerpt: This example describes the administration of MK-7 and/or MKH2-7 to subjects diagnosed with calciphylaxis. Typical symptoms include presentation of characteristic painful skin lesions (Nigwekar et al. (2015) “Calciphylaxis: Risk Factors, Diagnosis, and Treatment.” Am. J. Kidney Dis. 66:133-46). Definitive diagnosis of calciphylaxis is achieved via skin biopsy (Nigwekar, 2015 supra). Further conditions need to be considered for correct diagnosis (Id.).
as §1, with “diagnosed with” for “at risk of development of”, “are” for “are be”
The arrest of, or decreases in lesion size and frequency is contemplated to be an indication of successful treatment.
Additionally, because calciphylaxis has a considerable mortality risk, increased overall survival time of diagnosed subjects will be an indication of treatment success. It is contemplated that administration of MK-7 and/or MKH2-7 according to the foregoing will result in an increased overall survival time of diagnosed subjects.

[4] = system: subjects with ESRD receiving hemodialysis; assay: MK-7 in subjects with stable ESRD receiving hemodialysis: biomarker changes day 1 to day 15; assay type: in vivo, human; conditions: 10 mg capsule of MK-7 per day orally for 14 days; change between day 1 and day 15
Experimental: This example describes the administration of MK-7 to subjects with ESRD receiving hemodialysis, and who are at risk of developing calciphylaxis. Administration of MK-7 can result in a change in certain biomarker levels indicative of the prevention of the development of calciphylaxis, or in the arrest or slowing down of the development of calciphylaxis. A number of subjects with stable ESRD but without calciphylaxis are enrolled in the study, whereupon the subjects orally receive a 10 mg capsule of MK-7 per day for 14 days. The levels of certain biomarkers, including uncarboxylated Matrix Gla Protein (MGP), uncarboxylated osteocalcin, osteoprotegerin, Fetuin A and hs-CRP were assessed on day 1 and on day 15 (the end of treatment), and the changes between day 1 and day 15 were calculated.

[5] = vitamin K2 supplementation, hemodialysis patients

Compound	response rate in the reduction in dp-ucMGP levels ([1]; group receiving 135 μg of menaquinone-7) [%]	response rate in the reduction in dp-ucMGP levels ([1]; group receiving 360 μg of menaquinone-7) [%]	ratio of carboxylated to undercarboxylated osteocalcin (osteocalcin)	Fetuin A [2]	PIVKA-II [2]	osteoprotegerin [2]	uncarboxylated MGP [2]	uncarboxylated Protein C [2]	uncarboxylated osteocalcin [2]	overall survival time of diagnosed subjects [3]	average increase in Fetuin A [4] [%]	average increase in osteoprotegerin [4] [%]	average reduction in hs-CRP [4] [%]	average reduction in uncarboxylated MGP [4] [%]	average reduction in uncarboxylated osteocalcin [4] [%]	circulating PIVKA-II levels [1, 5]	circulating dp-ucMGP levels [1, 5]	circulating uncarboxylated osteocalcin levels [1, 5]
CC(C)=CCC/C(C)=C/CC/C(C)=C/CC/C(C)=C/CC/C(C)=C/CC/C(C)=C/CC/C(C)=C/CC1=C(C)C(=O)c2ccccc2C1=O [MK-7, 2-[(2E,6E,10E,14E,18E,22E)-3,7,11,15,19,23,27-heptamethyloctacosa-2,6,10,14,18,22,26-heptaenyl]-3-methylnaphthalene-1,4-dione]	77	93	increase	increase	increase	increase	decrease	decrease	decrease	increased	23.1	14.5	−35.8	−21.9	−55.5	–	–	–
CC(C)=CCC/C(C)=C/CC/C(C)=C/CC/C(C)=C/CC/C(C)=C/CC/C(C)=C/CC/C(C)=C/Cc1c(C)c(O)c2ccccc2c1O [MKH2-7, 2-[(2E,6E,10E,14E,18E,22E)-3,7,11,15,19,23,27-heptamethyloctacosa-2,6,10,14,18,22,26-heptaenyl]-3-methylnaphthalene-1,4-diol]	–	–	–	increase	increase	increase	decrease	decrease	decrease	increased	–	–	–	–	–	–	–	–
Vitamin K2	–	–	–	–	–	–	–	–	–	–	–	–	–	–	–	dose- and time-dependent decrease	dose- and time-dependent decrease	dose- and time-dependent decrease
